Reference: ChEMBL document CHEMBL1150366, “Structural requirements of pyrido[2,3-d]pyrimidin-7-one as CDK4/D inhibitors: 2D autocorrelation, CoMFA and CoMSIA analyses” (Bioorg Med Chem, 2008)

assay: Binding affinity to CDK4/D

log(10'6/IC50)	Structure (SMILES)
5.05	CN1CCN(c2ccc(Nc3ncc4ccc(=O)n(C5CCCC5)c4n3)cc2)CC1
3.26	CCCn1c(=O)ccc2cnc(Nc3ccccc3)nc21
4.42	O=c1ccc2cnc(Nc3ccccc3)nc2n1[C@H]1C[C@H]2CC[C@H]1C2 (relative stereo)
3.72	CCC(C)n1c(=O)ccc2cnc(Nc3ccccc3)nc21 (centres undefined)
3.21	CCn1c(=O)ccc2cnc(Nc3ccccc3)nc21
1.87	O=c1ccc2cnc(Nc3ccccc3)nc2n1CC1CCCCC1
2.38	COCn1c(=O)ccc2cnc(Nc3ccccc3)nc21
5.4	CN1CCN(c2ccc(Nc3ncc4ccc(=O)n(C5CCCCC5)c4n3)cc2)CC1
3.68	O=c1ccc2cnc(Nc3ccccc3)nc2n1C1CCCC1
4.33	O=c1ccc2cnc(Nc3ccccc3)nc2n1C1CCCCC1
3.74	O=c1ccc2cnc(Nc3ccccc3)nc2n1C1CCCCCC1
6.15	CCN(CC)CCOc1ccc(Nc2ncc3ccc(=O)n(C4CCCC4)c3n2)cc1
3.84	CC(C)n1c(=O)ccc2cnc(Nc3ccccc3)nc21
2.3	O=c1ccc2cnc(Nc3ccccc3)nc2n1CC1CO1 (centres undefined)
2.26	Cn1c(=O)ccc2cnc(Nc3ccccc3)nc21
5.4	CCN(CC)CCOc1ccc(Nc2ncc3ccc(=O)n(C4CCCCCC4)c3n2)cc1
3.53	CC(C)Cn1c(=O)ccc2cnc(Nc3ccccc3)nc21
4.96	CCN(CC)CCOc1ccc(Nc2ncc3ccc(=O)n(C4CCCCC4)c3n2)cc1

The next lines start with the compound.

Structure (SMILES)	log(10'6/IC50)
CCn1c(=O)ccc2cnc(Nc3cccc(F)c3)nc21	2.85
CCn1c(=O)ccc2cnc(Nc3cccc(OC(F)(F)C(F)F)c3)nc21	2.11
CCn1c(=O)ccc2cnc(Nc3ccc(F)cc3)nc21	2.91
CCn1c(=O)ccc2cnc(NCc3ccccc3)nc21	1.4
CCn1c(=O)ccc2cnc(Nc3ccc(N4CCOCC4)cc3)nc21	3.52
CCn1c(=O)ccc2cnc(Nc3cccc(OC)c3)nc21	1.4
O=c1ccc2cnc(Nc3ccccc3)nc2n1Cc1ccccc1	3.03
CC(C)CCn1c(=O)ccc2cnc(Nc3ccccc3)nc21	3.8
CN1CCN(c2ccc(Nc3ncc4ccc(=O)n([C@H]5C[C@H]6CC[C@H]5C6)c4n3)cc2)CC1 (relative stereo)	5.22
CCn1c(=O)ccc2cnc(Nc3ccncc3)nc21	2.93
CCn1c(=O)ccc2cnc(NC3CCCCC3)nc21	2.48
CCn1c(=O)ccc2cnc(Nc3ccc(N4CCN(C)CC4)cc3)nc21	4.07
CCN(CC)CCOc1ccc(Nc2ncc3ccc(=O)n([C@H]4C[C@H]5CC[C@H]4C5)c3n2)cc1 (relative stereo)	3.35
CCn1c(=O)ccc2cnc(Nc3ccc(OC)cc3)nc21	3.22
CN1CCN(c2ccc(Nc3ncc4ccc(=O)n(CC(O)CO)c4n3)cc2)CC1 (centres undefined)	2.78
CCn1c(=O)ccc2cnc(Nc3ccc(O)c(OC)c3)nc21	2.74
CN1CCN(c2ccc(Nc3ncc4ccc(=O)n(CCOCc5ccccc5)c4n3)cc2)CC1	2.68
CCn1c(=O)ccc2cnc(Nc3ccc(-n4cccc4)cc3)nc21	2.56

Structure (SMILES)	log(10'6/IC50)
CC(C)n1c(=O)ccc2cnc(Nc3ccc(N4CCN(C)CC4)cc3)nc21	4.49
CCOCCn1c(=O)ccc2cnc(Nc3ccccc3)nc21	2.11
COC(=O)Cn1c(=O)ccc2cnc(Nc3ccccc3)nc21	1.51
CC(C)CCn1c(=O)ccc2cnc(Nc3ccc(N4CCN(C)CC4)cc3)nc21	4.89
CCn1c(=O)ccc2cnc(Nc3ccc(O)cc3)nc21	3.23
COCCn1c(=O)ccc2cnc(Nc3ccccc3)nc21	2.54
CN1CCN(c2ccc(Nc3ncc4ccc(=O)n(C5CC5)c4n3)cc2)CC1	3.85
CCn1c(=O)ccc2cnc(N(C)c3ccccc3)nc21	1.4
CCN(CC)CCOc1ccc(Nc2ncc3ccc(=O)n(CC)c3n2)cc1	3.8
CCn1c(=O)ccc2cnc(NC(C)C)nc21	2.36
O=c1ccc2cnc(Nc3ccccc3)nc2n1-c1ccccc1	2.78
CCn1c(=O)ccc2cnc(NC(C)(C)C)nc21	2.28
CCCCn1c(=O)ccc2cnc(Nc3ccccc3)nc21	2.83
CCN(CC)CCOc1ccc(Nc2ncc3ccc(=O)n(C(C)C)c3n2)cc1	4.35
CCNc1ncc2ccc(=O)n(CC)c2n1	1.92
CN1CCN(c2ccc(Nc3ncc4ccc(=O)n(-c5ccccc5)c4n3)cc2)CC1	3.76
CCn1c(=O)ccc2cnc(Nc3ccc(OCCOC)cc3)nc21	2.63
CCn1c(=O)ccc2cnc(Nc3ccc(OC)c(OC)c3)nc21	2.39
